Laboratory results taken from paper PMC1431542, “Cyclic nucleotide specific phosphodiesterases of Leishmania major” (BMC Microbiology, 2006).

Assays:
LmjPDEB1 = biological target: T1, LmjPDEB1 (Leishmania major, UniProt Q6S996); assay: 3H-cAMP phosphodiesterase assay in yeast lysate; format: cell-based
T1 construct: gene PDEB1; full-length, hemagglutinin-tagged
T1 sequence (Q6S996 1-940): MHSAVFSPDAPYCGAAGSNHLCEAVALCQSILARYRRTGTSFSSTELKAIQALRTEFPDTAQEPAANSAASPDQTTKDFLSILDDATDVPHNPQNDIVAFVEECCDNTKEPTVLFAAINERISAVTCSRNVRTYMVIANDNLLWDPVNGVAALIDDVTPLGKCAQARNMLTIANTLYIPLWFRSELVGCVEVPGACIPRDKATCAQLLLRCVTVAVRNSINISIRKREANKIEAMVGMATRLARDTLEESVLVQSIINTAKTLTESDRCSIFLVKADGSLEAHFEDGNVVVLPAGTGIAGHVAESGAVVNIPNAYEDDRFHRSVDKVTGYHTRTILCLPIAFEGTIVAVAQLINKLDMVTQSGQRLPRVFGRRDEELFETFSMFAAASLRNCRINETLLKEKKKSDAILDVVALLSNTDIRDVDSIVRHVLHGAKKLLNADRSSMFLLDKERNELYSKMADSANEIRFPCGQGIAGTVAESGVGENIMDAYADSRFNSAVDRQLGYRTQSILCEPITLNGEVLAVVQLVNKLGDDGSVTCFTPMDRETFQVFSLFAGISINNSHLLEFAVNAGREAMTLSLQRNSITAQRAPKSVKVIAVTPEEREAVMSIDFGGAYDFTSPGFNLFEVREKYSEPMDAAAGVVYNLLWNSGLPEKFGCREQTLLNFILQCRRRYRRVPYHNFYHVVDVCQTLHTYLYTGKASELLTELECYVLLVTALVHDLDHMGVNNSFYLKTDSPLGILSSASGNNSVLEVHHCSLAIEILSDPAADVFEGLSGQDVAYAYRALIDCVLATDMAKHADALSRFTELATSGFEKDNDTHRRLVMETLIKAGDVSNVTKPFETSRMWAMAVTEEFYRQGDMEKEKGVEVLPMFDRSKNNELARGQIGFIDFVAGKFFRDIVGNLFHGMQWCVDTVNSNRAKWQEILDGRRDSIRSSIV

LmjPDEB2 = biological target: T2, LmjPDEB2 (Leishmania major, UniProt Q6S997); assay: biochemical
T2 construct: gene PDEB2; full-length, hemagglutinin-tagged
T2 sequence (Q6S997 entry or part of it): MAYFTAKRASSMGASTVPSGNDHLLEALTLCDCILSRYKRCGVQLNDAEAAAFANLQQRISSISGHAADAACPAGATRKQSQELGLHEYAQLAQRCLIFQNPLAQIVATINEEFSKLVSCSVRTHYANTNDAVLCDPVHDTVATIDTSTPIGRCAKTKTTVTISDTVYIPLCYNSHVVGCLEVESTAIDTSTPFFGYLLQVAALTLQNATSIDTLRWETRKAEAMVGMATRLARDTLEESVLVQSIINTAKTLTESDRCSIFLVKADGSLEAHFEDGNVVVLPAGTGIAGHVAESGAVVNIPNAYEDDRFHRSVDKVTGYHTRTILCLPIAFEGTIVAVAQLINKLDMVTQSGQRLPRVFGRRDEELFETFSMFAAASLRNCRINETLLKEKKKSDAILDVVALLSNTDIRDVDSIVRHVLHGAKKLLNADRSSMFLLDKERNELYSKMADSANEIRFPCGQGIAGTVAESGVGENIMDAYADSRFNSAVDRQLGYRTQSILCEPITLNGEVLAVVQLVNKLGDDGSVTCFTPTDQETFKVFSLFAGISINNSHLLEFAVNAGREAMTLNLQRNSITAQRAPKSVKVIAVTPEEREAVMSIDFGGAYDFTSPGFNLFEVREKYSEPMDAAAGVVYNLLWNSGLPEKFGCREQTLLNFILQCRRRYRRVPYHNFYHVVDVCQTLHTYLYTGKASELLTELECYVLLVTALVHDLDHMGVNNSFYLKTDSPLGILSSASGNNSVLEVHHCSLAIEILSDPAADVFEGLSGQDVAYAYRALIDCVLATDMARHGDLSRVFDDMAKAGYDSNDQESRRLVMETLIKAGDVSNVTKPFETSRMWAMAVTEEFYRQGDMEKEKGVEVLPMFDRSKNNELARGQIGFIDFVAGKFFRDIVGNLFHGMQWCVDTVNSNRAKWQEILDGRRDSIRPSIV

Compound | 3H-cAMP phosphodiesterase assay in yeast lysate (LmjPDEB1) | IC50 (LmjPDEB2) [µM]
CCOC(=O)c1cnc2c(cnn2CC)c1NN=C(C)C [compound 3, etazolate] | Only dipyridamole, trequinsin and etazolate exhibited at least a moderate potency. | 
OCCN(CCO)c1nc(N2CCCCC2)c2nc(N(CCO)CCO)nc(N3CCCCC3)c2n1 [compound 4, dipyridamole] | Only dipyridamole, trequinsin and etazolate exhibited at least a moderate potency. | 29
COc1cc2c(cc1OC)-c1c/c(=N\c3c(C)cc(C)cc3C)n(C)c(=O)n1CC2 [compound 9, trequinsin] | Only dipyridamole, trequinsin and etazolate exhibited at least a moderate potency. | 96
